According to the supplement of paper PMC12463676, “Small-molecule dissolution of stress granules by redox modulation benefits ALS models” (Nature Chemical Biology, 2025):

Assays:
lipoamide = compound: NC(=O)CCCCC1CCSS1 [lipoamide]; experiment: thermal stability z-score vs DMSO; higher = more thermally stabilized by treatment; conditions: HeLa, lipoamide concentration 100 µM
Experimental: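 Cellular thermal proteome profiling in HeLa cells. Cells were treated with 100 µM lipoamide for 1 h, with or without 1 mM arsenate for a further 1 h, then heated to ten temperatures (37-66.3 °C), and soluble protein was quantified by TMT mass spectrometry relative to 0.1% DMSO controls. The thermal stability score (sum of log2 fold changes minus the abundance score) was transformed to a z-score; mean of n = 3 experiments.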

potassium arsenate = compound: O=[As]([O-])(O)O.[K+] [potassium arsenate]; experiment: as above; conditions: HeLa; arsenate concentration 1 mM
Experimental: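 Cellular thermal proteome profiling in HeLa cells treated with 1 mM arsenate for 1 h (DMSO pretreatment), heated to ten temperatures (37-66.3 °C). Soluble protein was quantified by TMT mass spectrometry relative to DMSO controls; the thermal stability score was transformed to a z-score; mean of n = 3 experiments.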

[1] = arsenate co-treatment: 1 mM arsenate 1 h
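Note: each temperature applied for 3 min, abundance score taken as mean log2 fold change at the two lowest temperatures, z-score obtained by mean subtraction and division by SD.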

Chain of UniProt P14625 (P14625 whole entry): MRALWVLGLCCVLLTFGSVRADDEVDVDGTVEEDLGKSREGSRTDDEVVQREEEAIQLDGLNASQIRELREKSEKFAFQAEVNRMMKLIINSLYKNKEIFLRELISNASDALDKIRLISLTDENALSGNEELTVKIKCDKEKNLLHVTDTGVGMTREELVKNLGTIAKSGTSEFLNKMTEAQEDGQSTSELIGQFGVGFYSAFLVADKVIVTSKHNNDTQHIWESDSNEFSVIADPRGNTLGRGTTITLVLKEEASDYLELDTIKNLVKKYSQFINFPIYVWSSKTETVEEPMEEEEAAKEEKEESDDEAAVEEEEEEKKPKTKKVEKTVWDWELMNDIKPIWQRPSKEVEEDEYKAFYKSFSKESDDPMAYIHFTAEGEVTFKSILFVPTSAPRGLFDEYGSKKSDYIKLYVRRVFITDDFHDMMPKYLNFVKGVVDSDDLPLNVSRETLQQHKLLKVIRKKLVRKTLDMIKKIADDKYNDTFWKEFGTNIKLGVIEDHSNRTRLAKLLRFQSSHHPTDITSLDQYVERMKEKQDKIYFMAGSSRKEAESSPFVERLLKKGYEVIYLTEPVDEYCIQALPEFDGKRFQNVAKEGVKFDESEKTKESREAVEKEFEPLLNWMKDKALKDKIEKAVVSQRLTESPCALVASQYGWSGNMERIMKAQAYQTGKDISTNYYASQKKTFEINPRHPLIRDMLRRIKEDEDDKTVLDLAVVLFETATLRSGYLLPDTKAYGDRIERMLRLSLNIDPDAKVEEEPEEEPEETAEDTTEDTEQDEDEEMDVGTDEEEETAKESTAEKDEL
Chain of UniProt O00170 (O00170 whole entry): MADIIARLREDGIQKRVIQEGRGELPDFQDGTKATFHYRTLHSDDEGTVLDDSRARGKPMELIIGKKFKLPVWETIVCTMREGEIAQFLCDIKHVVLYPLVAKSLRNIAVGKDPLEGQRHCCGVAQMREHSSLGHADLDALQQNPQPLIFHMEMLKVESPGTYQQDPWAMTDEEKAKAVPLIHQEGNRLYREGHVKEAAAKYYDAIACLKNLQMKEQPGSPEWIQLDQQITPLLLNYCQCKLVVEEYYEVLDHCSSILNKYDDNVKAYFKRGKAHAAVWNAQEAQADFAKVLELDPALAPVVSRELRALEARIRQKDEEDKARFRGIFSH
Chain of UniProt Q96AA3 (Q96AA3 whole entry): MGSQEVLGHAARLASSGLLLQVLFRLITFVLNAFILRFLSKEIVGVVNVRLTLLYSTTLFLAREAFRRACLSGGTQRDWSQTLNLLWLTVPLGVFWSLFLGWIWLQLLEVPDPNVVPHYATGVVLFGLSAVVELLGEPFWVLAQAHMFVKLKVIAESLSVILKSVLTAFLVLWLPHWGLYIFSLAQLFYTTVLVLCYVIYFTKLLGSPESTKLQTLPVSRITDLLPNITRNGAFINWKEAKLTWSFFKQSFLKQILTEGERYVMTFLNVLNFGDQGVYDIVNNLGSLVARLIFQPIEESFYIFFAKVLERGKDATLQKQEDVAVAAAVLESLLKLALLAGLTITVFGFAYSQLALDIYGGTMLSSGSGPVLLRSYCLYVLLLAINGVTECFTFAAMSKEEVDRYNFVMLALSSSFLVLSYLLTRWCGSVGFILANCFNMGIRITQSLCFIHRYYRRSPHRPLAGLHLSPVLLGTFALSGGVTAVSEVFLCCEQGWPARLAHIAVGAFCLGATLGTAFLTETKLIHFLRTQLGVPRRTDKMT
Chain of UniProt P51784 (P51784 whole entry): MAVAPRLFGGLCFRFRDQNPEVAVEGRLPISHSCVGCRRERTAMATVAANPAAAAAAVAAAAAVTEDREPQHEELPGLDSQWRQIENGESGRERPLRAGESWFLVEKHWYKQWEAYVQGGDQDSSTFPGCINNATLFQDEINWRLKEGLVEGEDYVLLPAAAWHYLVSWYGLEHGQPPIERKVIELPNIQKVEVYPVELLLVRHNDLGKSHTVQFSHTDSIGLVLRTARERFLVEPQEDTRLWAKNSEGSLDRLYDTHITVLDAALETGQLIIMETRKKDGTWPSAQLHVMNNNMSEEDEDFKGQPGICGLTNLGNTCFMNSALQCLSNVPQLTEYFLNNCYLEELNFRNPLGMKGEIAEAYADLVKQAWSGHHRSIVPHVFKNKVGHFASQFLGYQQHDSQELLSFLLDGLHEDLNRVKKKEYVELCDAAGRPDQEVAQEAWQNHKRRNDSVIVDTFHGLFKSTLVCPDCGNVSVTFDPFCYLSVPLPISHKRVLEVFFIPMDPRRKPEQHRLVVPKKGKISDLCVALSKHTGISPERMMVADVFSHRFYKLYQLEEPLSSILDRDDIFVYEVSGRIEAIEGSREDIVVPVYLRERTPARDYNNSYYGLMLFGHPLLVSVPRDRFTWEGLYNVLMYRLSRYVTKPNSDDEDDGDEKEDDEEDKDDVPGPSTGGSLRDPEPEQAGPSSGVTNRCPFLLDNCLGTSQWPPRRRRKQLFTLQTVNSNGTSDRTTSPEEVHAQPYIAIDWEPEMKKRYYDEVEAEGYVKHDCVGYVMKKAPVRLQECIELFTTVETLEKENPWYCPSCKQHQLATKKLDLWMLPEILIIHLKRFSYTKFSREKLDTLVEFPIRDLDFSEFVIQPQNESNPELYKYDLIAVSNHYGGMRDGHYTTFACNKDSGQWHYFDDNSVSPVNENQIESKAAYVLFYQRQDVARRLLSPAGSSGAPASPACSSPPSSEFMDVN
Chain of UniProt Q69YN2 (Q69YN2 whole entry): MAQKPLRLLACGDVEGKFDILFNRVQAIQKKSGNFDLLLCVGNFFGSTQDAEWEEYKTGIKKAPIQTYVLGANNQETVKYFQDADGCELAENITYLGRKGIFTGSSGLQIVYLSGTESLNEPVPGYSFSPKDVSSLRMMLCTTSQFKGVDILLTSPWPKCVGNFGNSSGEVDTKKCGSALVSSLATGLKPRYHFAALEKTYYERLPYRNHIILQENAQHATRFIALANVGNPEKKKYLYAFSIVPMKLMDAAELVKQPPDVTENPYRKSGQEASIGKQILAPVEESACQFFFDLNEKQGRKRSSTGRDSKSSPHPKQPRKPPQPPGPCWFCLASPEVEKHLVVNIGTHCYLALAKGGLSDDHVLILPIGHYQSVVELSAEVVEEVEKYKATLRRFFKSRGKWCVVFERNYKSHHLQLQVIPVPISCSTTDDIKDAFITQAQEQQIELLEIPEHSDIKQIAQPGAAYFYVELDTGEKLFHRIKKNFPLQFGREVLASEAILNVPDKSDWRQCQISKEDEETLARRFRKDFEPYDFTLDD
Chain of UniProt Q9BW83 (Q9BW83 whole entry): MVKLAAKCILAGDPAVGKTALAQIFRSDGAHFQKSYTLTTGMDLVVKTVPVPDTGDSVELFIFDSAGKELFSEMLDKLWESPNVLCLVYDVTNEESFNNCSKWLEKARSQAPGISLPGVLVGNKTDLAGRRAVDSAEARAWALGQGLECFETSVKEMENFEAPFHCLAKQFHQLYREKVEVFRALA
Chain of UniProt Q5T9A4 (Q5T9A4 whole entry): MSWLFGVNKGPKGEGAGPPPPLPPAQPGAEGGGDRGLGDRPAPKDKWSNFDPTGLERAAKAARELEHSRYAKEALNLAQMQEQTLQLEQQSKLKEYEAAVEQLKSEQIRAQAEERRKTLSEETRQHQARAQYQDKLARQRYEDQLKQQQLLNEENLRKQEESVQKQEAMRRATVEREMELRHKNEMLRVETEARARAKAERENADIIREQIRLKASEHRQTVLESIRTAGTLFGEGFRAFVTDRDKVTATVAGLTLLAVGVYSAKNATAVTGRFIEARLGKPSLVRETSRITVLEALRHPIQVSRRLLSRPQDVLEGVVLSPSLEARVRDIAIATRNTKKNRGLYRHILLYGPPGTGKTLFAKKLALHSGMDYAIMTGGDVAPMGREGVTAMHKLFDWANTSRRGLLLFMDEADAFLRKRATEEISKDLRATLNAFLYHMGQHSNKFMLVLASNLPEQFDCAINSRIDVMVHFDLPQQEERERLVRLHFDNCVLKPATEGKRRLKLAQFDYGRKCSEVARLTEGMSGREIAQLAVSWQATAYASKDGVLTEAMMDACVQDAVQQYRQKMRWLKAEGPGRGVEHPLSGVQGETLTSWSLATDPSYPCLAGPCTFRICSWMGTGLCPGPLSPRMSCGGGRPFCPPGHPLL
Chain of UniProt P15529 (P15529 whole entry): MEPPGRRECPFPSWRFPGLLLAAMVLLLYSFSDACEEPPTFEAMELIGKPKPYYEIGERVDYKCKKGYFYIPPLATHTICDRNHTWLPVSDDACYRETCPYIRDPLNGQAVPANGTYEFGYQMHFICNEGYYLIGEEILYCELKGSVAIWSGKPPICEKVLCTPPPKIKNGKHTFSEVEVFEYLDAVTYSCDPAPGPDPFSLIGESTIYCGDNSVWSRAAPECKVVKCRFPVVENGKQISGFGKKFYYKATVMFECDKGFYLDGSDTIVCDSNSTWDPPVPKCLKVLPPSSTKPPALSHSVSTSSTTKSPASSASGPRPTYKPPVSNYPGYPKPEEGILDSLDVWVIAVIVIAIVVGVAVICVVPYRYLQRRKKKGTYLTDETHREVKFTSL
Chain of UniProt Q96AQ8 (Q96AQ8 whole entry): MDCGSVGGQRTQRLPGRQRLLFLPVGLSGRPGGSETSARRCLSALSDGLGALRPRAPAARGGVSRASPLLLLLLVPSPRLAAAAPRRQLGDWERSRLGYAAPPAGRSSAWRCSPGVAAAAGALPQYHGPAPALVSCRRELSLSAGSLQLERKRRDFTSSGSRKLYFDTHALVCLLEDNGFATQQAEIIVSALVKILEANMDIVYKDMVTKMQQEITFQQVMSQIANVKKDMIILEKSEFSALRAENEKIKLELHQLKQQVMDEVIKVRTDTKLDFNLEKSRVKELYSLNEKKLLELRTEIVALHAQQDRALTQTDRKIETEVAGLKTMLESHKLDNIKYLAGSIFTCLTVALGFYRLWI
Chain of UniProt Q15126 (Q15126 whole entry): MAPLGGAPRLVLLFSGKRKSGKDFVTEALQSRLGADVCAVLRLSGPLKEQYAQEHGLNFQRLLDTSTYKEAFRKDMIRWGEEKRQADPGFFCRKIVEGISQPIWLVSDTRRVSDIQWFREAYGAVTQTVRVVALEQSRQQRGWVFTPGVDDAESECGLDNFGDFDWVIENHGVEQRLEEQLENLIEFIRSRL

In the case of KIFC3 (UniProt Q9BVG8), the thermal stability z-score (lipoamide; [1]) is reported as -0.119, the thermal stability z-score (lipoamide; arsenate co-treatment: none) is reported as -0.358 and the thermal stability z-score (potassium arsenate) is reported as -0.23.
BRD3 (UniProt Q15059) gave a thermal stability z-score (lipoamide; [1]) of 0.0121, a thermal stability z-score (lipoamide; arsenate co-treatment: none) of -0.107 and a thermal stability z-score (potassium arsenate) of -0.279.
Target UBASH3B (UniProt Q8TF42) has a thermal stability z-score (lipoamide; [1]) of -0.0394, a thermal stability z-score (lipoamide; arsenate co-treatment: none) of -0.103 and a thermal stability z-score (potassium arsenate) of -0.165.
BRD9 (UniProt Q9H8M2) showed a thermal stability z-score (lipoamide; [1]) of 0.218, a thermal stability z-score (lipoamide; arsenate co-treatment: none) of 0.153 and a thermal stability z-score (potassium arsenate) of 0.496.
In the case of CD46 (UniProt P15529), the thermal stability z-score (lipoamide; [1]) is reported as -0.681, the thermal stability z-score (lipoamide; arsenate co-treatment: none) is reported as -0.571 and the thermal stability z-score (potassium arsenate) is reported as -0.443.
For RAD23B (UniProt P54727), the thermal stability z-score (lipoamide; [1]) was 1.08, the thermal stability z-score (lipoamide; arsenate co-treatment: none) was 1.05 and the thermal stability z-score (potassium arsenate) was 0.357.
Target CWF19L1 (UniProt Q69YN2) has a thermal stability z-score (lipoamide; [1]) of -0.381, a thermal stability z-score (lipoamide; arsenate co-treatment: none) of -0.106 and a thermal stability z-score (potassium arsenate) of -0.198.
IFT27 (UniProt Q9BW83) showed a thermal stability z-score (lipoamide; [1]) of 0.856, a thermal stability z-score (lipoamide; arsenate co-treatment: none) of 0.225 and a thermal stability z-score (potassium arsenate) of 0.151.
Target PIP5K1A (UniProt Q99755) has a thermal stability z-score (lipoamide; [1]) of -0.948, a thermal stability z-score (lipoamide; arsenate co-treatment: none) of -0.813 and a thermal stability z-score (potassium arsenate) of 0.951.
Target RPL24 (UniProt P83731) has a thermal stability z-score (lipoamide; [1]) of 0.228, a thermal stability z-score (lipoamide; arsenate co-treatment: none) of -0.084 and a thermal stability z-score (potassium arsenate) of -0.927.
NSMAF (UniProt Q92636) was tested, and the thermal stability z-score (lipoamide; [1]) was -0.123, the thermal stability z-score (lipoamide; arsenate co-treatment: none) was -0.458 and the thermal stability z-score (potassium arsenate) was -0.758.
For TOR1B (UniProt O14657), the thermal stability z-score (lipoamide; [1]) was -2.23, the thermal stability z-score (lipoamide; arsenate co-treatment: none) was -2.79 and the thermal stability z-score (potassium arsenate) was 1.11.
ZC3H14 (UniProt Q6PJT7) gave a thermal stability z-score (lipoamide; [1]) of 0.686, a thermal stability z-score (lipoamide; arsenate co-treatment: none) of -0.0584 and a thermal stability z-score (potassium arsenate) of -5.55.
SEC61B (UniProt P60468) gave a thermal stability z-score (lipoamide; [1]) of 0.911, a thermal stability z-score (lipoamide; arsenate co-treatment: none) of 0.44 and a thermal stability z-score (potassium arsenate) of 0.265.
In the case of MYL6 (UniProt P60660), the thermal stability z-score (lipoamide; [1]) is reported as 0.576, the thermal stability z-score (lipoamide; arsenate co-treatment: none) is reported as 0.451 and the thermal stability z-score (potassium arsenate) is reported as -0.312.
SMYD4 (UniProt Q8IYR2) showed a thermal stability z-score (lipoamide; [1]) of -0.0691, a thermal stability z-score (lipoamide; arsenate co-treatment: none) of -0.00905 and a thermal stability z-score (potassium arsenate) of -0.0713.
Work on SUOX (UniProt P51687) yielded a thermal stability z-score (lipoamide; [1]) of -0.266, a thermal stability z-score (lipoamide; arsenate co-treatment: none) of -0.279 and a thermal stability z-score (potassium arsenate) of 0.168.
NQO2 (UniProt P16083) was tested, and the thermal stability z-score (lipoamide; [1]) was 1.23, the thermal stability z-score (lipoamide; arsenate co-treatment: none) was 0.788 and the thermal stability z-score (potassium arsenate) was 0.389.
NAGPA (UniProt Q9UK23) gave a thermal stability z-score (lipoamide; [1]) of -0.847, a thermal stability z-score (lipoamide; arsenate co-treatment: none) of -0.928 and a thermal stability z-score (potassium arsenate) of -1.05.
RAB21 (UniProt Q9UL25) gave a thermal stability z-score (lipoamide; [1]) of 0.0174, a thermal stability z-score (lipoamide; arsenate co-treatment: none) of 0.118 and a thermal stability z-score (potassium arsenate) of 0.119.
NASP (UniProt P49321) gave a thermal stability z-score (lipoamide; [1]) of -0.412, a thermal stability z-score (lipoamide; arsenate co-treatment: none) of 0.0851 and a thermal stability z-score (potassium arsenate) of 0.578.
NEK7 (UniProt Q8TDX7) showed a thermal stability z-score (lipoamide; [1]) of -0.813, a thermal stability z-score (lipoamide; arsenate co-treatment: none) of -0.453 and a thermal stability z-score (potassium arsenate) of -0.53.
ATAD3B (UniProt Q5T9A4) was tested, and the thermal stability z-score (lipoamide; [1]) was -0.338, the thermal stability z-score (lipoamide; arsenate co-treatment: none) was -0.0604 and the thermal stability z-score (potassium arsenate) was 0.607.
SNCA (UniProt P37840) showed a thermal stability z-score (lipoamide; [1]) of 0.553, a thermal stability z-score (lipoamide; arsenate co-treatment: none) of 0.198 and a thermal stability z-score (potassium arsenate) of -0.263.
For STK25 (UniProt O00506), the thermal stability z-score (lipoamide; [1]) was 0.466, the thermal stability z-score (lipoamide; arsenate co-treatment: none) was -0.862 and the thermal stability z-score (potassium arsenate) was 0.496.
ARHGEF1 (UniProt Q92888) gave a thermal stability z-score (lipoamide; [1]) of -0.381, a thermal stability z-score (lipoamide; arsenate co-treatment: none) of -0.242 and a thermal stability z-score (potassium arsenate) of 0.0617.
With MCUR1 (UniProt Q96AQ8) the thermal stability z-score (lipoamide; [1]) was 0.853, the thermal stability z-score (lipoamide; arsenate co-treatment: none) was 1.15 and the thermal stability z-score (potassium arsenate) was -0.0449.
ENG (UniProt P17813) showed a thermal stability z-score (lipoamide; [1]) of -0.721, a thermal stability z-score (lipoamide; arsenate co-treatment: none) of -0.506 and a thermal stability z-score (potassium arsenate) of 0.478.
MRGBP (UniProt Q9NV56) gave a thermal stability z-score (lipoamide; [1]) of 0.386, a thermal stability z-score (lipoamide; arsenate co-treatment: none) of -0.212 and a thermal stability z-score (potassium arsenate) of -0.45.
In the case of RPL23A (UniProt P62750), the thermal stability z-score (lipoamide; [1]) is reported as -0.321, the thermal stability z-score (lipoamide; arsenate co-treatment: none) is reported as -0.341 and the thermal stability z-score (potassium arsenate) is reported as -1.49.
NUDT16 (UniProt Q96DE0) was tested, and the thermal stability z-score (lipoamide; [1]) was 0.938, the thermal stability z-score (lipoamide; arsenate co-treatment: none) was 0.232 and the thermal stability z-score (potassium arsenate) was -0.335.
For PPTC7 (UniProt Q8NI37), the thermal stability z-score (lipoamide; [1]) was -0.248, the thermal stability z-score (lipoamide; arsenate co-treatment: none) was -0.287 and the thermal stability z-score (potassium arsenate) was 0.222.
For METAP1 (UniProt P53582), the thermal stability z-score (lipoamide; [1]) was -0.0942, the thermal stability z-score (lipoamide; arsenate co-treatment: none) was -0.673 and the thermal stability z-score (potassium arsenate) was 0.894.
CALM1 (UniProt P0DP23) was tested, and the thermal stability z-score (lipoamide; [1]) was 3.06, the thermal stability z-score (lipoamide; arsenate co-treatment: none) was 1.53 and the thermal stability z-score (potassium arsenate) was 1.29.
RFT1 (UniProt Q96AA3) was tested, and the thermal stability z-score (lipoamide; [1]) was -0.878, the thermal stability z-score (lipoamide; arsenate co-treatment: none) was -0.767 and the thermal stability z-score (potassium arsenate) was -0.609.
SCML2 (UniProt Q9UQR0) gave a thermal stability z-score (lipoamide; [1]) of -0.0267, a thermal stability z-score (lipoamide; arsenate co-treatment: none) of -0.0968 and a thermal stability z-score (potassium arsenate) of -0.22.
For AIP (UniProt O00170), the thermal stability z-score (lipoamide; [1]) was -0.0398, the thermal stability z-score (lipoamide; arsenate co-treatment: none) was -0.833 and the thermal stability z-score (potassium arsenate) was -2.08.
With GLOD4 (UniProt Q9HC38) the thermal stability z-score (lipoamide; [1]) was 2.19, the thermal stability z-score (lipoamide; arsenate co-treatment: none) was 2.33 and the thermal stability z-score (potassium arsenate) was 0.311.
AKAP9 (UniProt Q99996) gave a thermal stability z-score (lipoamide; [1]) of 0.757, a thermal stability z-score (lipoamide; arsenate co-treatment: none) of 1.46 and a thermal stability z-score (potassium arsenate) of 1.18.
TSTD2 (UniProt Q5T7W7) was tested, and the thermal stability z-score (lipoamide; [1]) was -0.0897, the thermal stability z-score (lipoamide; arsenate co-treatment: none) was -0.178 and the thermal stability z-score (potassium arsenate) was -0.0518.
For CPNE1 (UniProt Q99829), the thermal stability z-score (lipoamide; [1]) was 0.0896, the thermal stability z-score (lipoamide; arsenate co-treatment: none) was 0.0907 and the thermal stability z-score (potassium arsenate) was -0.934.
For CDR2L (UniProt Q86X02), the thermal stability z-score (lipoamide; [1]) was 0.891, the thermal stability z-score (lipoamide; arsenate co-treatment: none) was 0.86 and the thermal stability z-score (potassium arsenate) was -0.419.
FAM195A (UniProt Q9BUT9) gave a thermal stability z-score (lipoamide; [1]) of 0.00727, a thermal stability z-score (lipoamide; arsenate co-treatment: none) of 0.202 and a thermal stability z-score (potassium arsenate) of -0.164.
With TMEM38B (UniProt Q9NVV0) the thermal stability z-score (lipoamide; [1]) was 0.603, the thermal stability z-score (lipoamide; arsenate co-treatment: none) was -0.085 and the thermal stability z-score (potassium arsenate) was 0.654.
Target ARHGAP35 (UniProt Q9NRY4) has a thermal stability z-score (lipoamide; [1]) of -0.512, a thermal stability z-score (lipoamide; arsenate co-treatment: none) of -0.145 and a thermal stability z-score (potassium arsenate) of 0.128.
In the case of USP11 (UniProt P51784), the thermal stability z-score (lipoamide; [1]) is reported as -0.0801, the thermal stability z-score (lipoamide; arsenate co-treatment: none) is reported as -0.162 and the thermal stability z-score (potassium arsenate) is reported as 0.143.
Target CD44 (UniProt P16070) has a thermal stability z-score (lipoamide; [1]) of 0.358, a thermal stability z-score (lipoamide; arsenate co-treatment: none) of 0.287 and a thermal stability z-score (potassium arsenate) of 0.197.
Work on MCCC1 (UniProt Q96RQ3) yielded a thermal stability z-score (lipoamide; [1]) of -0.187, a thermal stability z-score (lipoamide; arsenate co-treatment: none) of -0.191 and a thermal stability z-score (potassium arsenate) of -0.585.
With PHAX (UniProt Q9H814) the thermal stability z-score (lipoamide; [1]) was 0.329, the thermal stability z-score (lipoamide; arsenate co-treatment: none) was 0.358 and the thermal stability z-score (potassium arsenate) was 0.321.
PMVK (UniProt Q15126) showed a thermal stability z-score (lipoamide; [1]) of -0.641, a thermal stability z-score (lipoamide; arsenate co-treatment: none) of 0.0911 and a thermal stability z-score (potassium arsenate) of 0.0469.
For RBM4 (UniProt Q9BWF3), the thermal stability z-score (lipoamide; [1]) was 0.135, the thermal stability z-score (lipoamide; arsenate co-treatment: none) was 0.129 and the thermal stability z-score (potassium arsenate) was 0.216.
CHCHD6 (UniProt Q9BRQ6) was tested, and the thermal stability z-score (lipoamide; [1]) was 0.209, the thermal stability z-score (lipoamide; arsenate co-treatment: none) was 0.536 and the thermal stability z-score (potassium arsenate) was -0.66.
With HSP90B1 (UniProt P14625) the thermal stability z-score (lipoamide; [1]) was -3.56, the thermal stability z-score (lipoamide; arsenate co-treatment: none) was -2.61 and the thermal stability z-score (potassium arsenate) was 0.54.
With POLDIP3 (UniProt Q9BY77) the thermal stability z-score (lipoamide; [1]) was -0.257, the thermal stability z-score (lipoamide; arsenate co-treatment: none) was 0.0404 and the thermal stability z-score (potassium arsenate) was -1.86.
Target PPM1B (UniProt O75688) has a thermal stability z-score (lipoamide; [1]) of 0.109, a thermal stability z-score (lipoamide; arsenate co-treatment: none) of 0.277 and a thermal stability z-score (potassium arsenate) of 0.179.
